This data set can be described thus: in vivo. Details: species or system c57/BL6 mice. The following applies: male, c57/BL6, mouse, sc, 10 nmol/kg. As to the method:
The purpose of this assay was to assess the pharmocokinetic profiles of the glucagon derivatives of the invention in mice. The pharmacokinetic profile of glucagon-GLP1 co-agonists was tested in normal male c57/BL6 mice (approximately body weight: 30 grams), in a sparse sampling design with for example 3 mice represented at each time point (for example: t=0.25, 0.5, 1, 3, 6, 10, 24, 30 and 48 hours). The compound was dosed as a single subcutaneous dose of 10 nmol/kg at t=0. The plasma levels of the glucagon-GLP1 co-agonist compounds were determined using an ELISA/LOCI assay (see Example 80 herein). Pharmacokinetic calculations such as half-life (T1/2) maximum concentration (Cmax) and time for maximum concentration (Tmax) of the compounds were determined using the PC based software, Phoenix (WinNonLin version 6.3 from Pharsight, Certara). Samples were analysed for peptide levels using Luminescence Oxygen Channeling Immunoassay (LOCI). The donor beads were coated with streptavidin. Acceptor beads are conjugated with a monoclonal antibody specific to gGlu in the linker (NN454-1F31) while the second monoclonal antibody (1F120) specific for glucagon was biotinylated. Three reactants were combined with the analyte and formed a two-sited immuno-complex. Illumination of the complex released singlet oxygen atoms from the donor beads. They were channeled into the acceptor beads and triggered chemiluminescence which was measured in the EnVision plate reader. The amount of emitted light is proportional to the concentration of peptide. One μL sample/calibrator/control was applied to the wells of 384-well LOCI plates followed by a 15 μL mixture of the antibody-coated acceptor beads (0.5 μg/well) and the biotinylated antibody. The plates were incubated over night at 21-22° C. Following incubation, 30 μL of the streptavidin-coated donorbeads (2 μg/well) was added to each well and incubated for 30 minutes at 21-22° C. The plates were read in an Envision plate reader at 21-22° C. with a filter having a bandwidth of 520-645 nm after excitation by a 680 nm laser. The total measurement time per well was 210 ms including a 70 ms excitation time.

Numbered stars: 1 amine (or outer) side, 2 acyl side, 3 side chain; on linkers, the order of the positions; unused ones are H or OH. Square brackets hold non-standard residues; d marks the D form. Side chains are listed from the residue outwards. Peptide text beside a SMILES is read from it. * marks the point of attachment. C18 diacid = O=C(O)CCCCCCCCCCCCCCCCC(=O)*; γGlu = O=C(O)[C@H](CCC(=O)[*:2])N[*:1]; AEEA = NCCOCCOCC(=O)O; Aib = CC(C)(N)C(=O)O

Usually Cmax stands for the peak of the concentration-time curve. Usually Tmax stands for the time from dosing to the highest level. A word on the half-life: it is how long it takes for the measured level to halve. `CC(C)C[C@H](NC(=O)[C@H](CC(C)C)NC(=O)[C@H](Cc1c[nH]c2ccccc12)NC(=O)[C@H](CCC(N)=O)NC(=O)[C@@H](NC(=O)[C@H](Cc1ccccc1)NC(=O)[C@H](CCC(=O)O)NC(=O)[C@H](CCC(N)=O)NC(=O)[C@H](C)NC(=O)[C@H](C)NC(=O)[C@H](CCCCN)NC(=O)[C@H](CO)NC(=O)[C@H](CC(=O)O)NC(=O)[C@H](CC(C)C)NC(=O)[C@H](Cc1ccc(O)cc1)NC(=O)[C@H](CCCCN)NC(=O)[C@H](CO)NC(=O)[C@H](CC(C)C)NC(=O)[C@H](CC(=O)O)NC(=O)[C@H](CO)NC(=O)[C@@H](NC(=O)[C@H](Cc1ccccc1)NC(=O)[C@@H](NC(=O)CNC(=O)[C@H](CCC(N)=O)NC(=O)C(C)(C)NC(=O)[C@@H](N)Cc1c[nH]cn1)[C@@H](C)O)[C@@H](C)O)C(C)C)C(=O)N[C@@H](CC(N)=O)C(=O)N[C@@H](CCCCNC(=O)CC[C@H](NC(=O)CC[C@H](NC(=O)COCCOCCNC(=O)COCCOCCNC(=O)CC[C@H](NC(=O)CCCCCCCCCCCCCCCCC(=O)O)C(=O)O)C(=O)O)C(=O)O)C(N)=O` [Example 8, N^ε29-[(4S)-4-carboxy-4-[[(4S)-4-carboxy-4-[[2-[2-[2-[[2-[2-[2-[[(4S)-4-carboxy-4-(17-carboxyheptadecanoylamino)butanoyl]amino]ethoxy]ethoxy]acetyl]amino]ethoxy]ethoxy]acetyl]amino]butanoyl]amino]butanoyl]-[Aib2,Leu10,Lys17,Ala18,Glu21,Leu27,Lys29]-Glucagon amide] (H-H[Aib]QGTFTSDLSKYLDSKAAQEFVQWLLNK([γGlu-γGlu-AEEA-AEEA-γGlu-C18 diacid])-NH2; N-terminus assumed): the maximum concentration (Cmax) was 45 nM, the time to peak (Tmax) was 3 h and the half-life was 23 h.

On to `CC(C)C[C@H](NC(=O)[C@H](CC(C)C)NC(=O)[C@H](Cc1c[nH]c2ccccc12)NC(=O)[C@H](CCC(N)=O)NC(=O)[C@@H](NC(=O)[C@H](Cc1ccccc1)NC(=O)[C@H](CCC(=O)O)NC(=O)[C@H](CCCNC(=N)N)NC(=O)[C@H](C)NC(=O)[C@H](CCCNC(=N)N)NC(=O)[C@H](CCCNC(=N)N)NC(=O)[C@H](CO)NC(=O)[C@H](CC(=O)O)NC(=O)[C@H](CC(C)C)NC(=O)[C@H](Cc1ccc(O)cc1)NC(=O)[C@H](CCCCN)NC(=O)[C@H](CO)NC(=O)[C@H](CC(C)C)NC(=O)[C@H](CC(=O)O)NC(=O)[C@H](CO)NC(=O)[C@@H](NC(=O)[C@H](Cc1ccccc1)NC(=O)[C@@H](NC(=O)CNC(=O)[C@H](CCC(N)=O)NC(=O)C(C)(C)NC(=O)[C@@H](N)Cc1c[nH]cn1)[C@@H](C)O)[C@@H](C)O)C(C)C)C(=O)N[C@@H](CC(N)=O)C(=O)N[C@@H](CCCCNC(=O)CC[C@H](NC(=O)CC[C@H](NC(=O)COCCOCCNC(=O)COCCOCCNC(=O)CC[C@H](NC(=O)CCCCCCCCCCCCCCCCC(=O)O)C(=O)O)C(=O)O)C(=O)O)C(N)=O` [Example 12, N^ε29-[(4S)-4-carboxy-4-[[(4S)-4-carboxy-4-[[2-[2-[2-[[2-[2-[2-[[(4S)-4-carboxy-4-(17-carboxyheptadecanoylamino)butanoyl]amino]ethoxy]ethoxy]acetyl]amino]ethoxy]ethoxy]acetyl]amino]butanoyl]amino]butanoyl]-[Aib2,Leu10,Arg20,Glu21,Leu27,Lys29]-Glucagon amide] (H-H[Aib]QGTFTSDLSKYLDSRRAREFVQWLLNK([γGlu-γGlu-AEEA-AEEA-γGlu-C18 diacid])-NH2), for which the highest level (Cmax) was 24.4 nM, the Tmax is 3 h and the half-life is 14 h.
